Counter-ions that a name gives are not always drawn.
How the values were obtained:
[1] = assay type: physicochemical
Method: All excipients used in the formulations were compatible with physostigmine before and after eBeam of 25 kGy. NaOH was used to adjust the cream pH and was added before mixing with physostigmine.

[2] = thermal and photolytic conditions

Compound: CNC(=O)Oc1ccc2c(c1)[C@]1(C)CCN(C)[C@@H]1N2C [Physostigmine Salicylate]
- Total Impurities Pre eBeam ([1]; Table 13): 0.11
- Total Impurities Post eBeam T0 ([1]; Table 13, eBeam 25 kGy): 0.15

Compound: CN1[C@@H]2CC[C@H]1C[C@@H](OC(=O)C(CO)c1ccccc1)C2 (stereo partly drawn) [atropine sulfate]
- thermal and photolytic degradation [2]: No significant variation

Source: US20240316028A1, “[…] FORMULATIONS AND THEIR USES” (priority 2023, published 2024)
